The text below walks through data of patent US20250163104A1, “MACROCYCLIC IMMUNOMODULATORS” (priority 2021, published 2025).

Where a SMILES comes first, the peptide text is derived from it. Bridges are numbered along the chain shown (N, C = ends). [ ]: non-standard residue; d: D form. The star is where a group is joined. ξ: configuration not given here. Bip = N[C@@H](Cc1ccc(-c2ccccc2)cc1)C(=O)O; Cha = N[C@@H](CC1CCCCC1)C(=O)O; Thr(3ξ) = CC(O)[C@H](N)C(=O)O; Carboxymethyl = O=C(O)C*; Orn = NCCC[C@H](N)C(=O)O; Dab = NCC[C@H](N)C(=O)O

The target in the test is T1, human PD-1 / PD-L1-Ig binding on Jurkat cell line over-expressing human PD-1 (Jurkat-PD-1) (Homo sapiens, UniProt Q15116).
T1 construct: expressed in transfected cells; host or cells: Jurkat
T1 sequence (Q15116 25-288): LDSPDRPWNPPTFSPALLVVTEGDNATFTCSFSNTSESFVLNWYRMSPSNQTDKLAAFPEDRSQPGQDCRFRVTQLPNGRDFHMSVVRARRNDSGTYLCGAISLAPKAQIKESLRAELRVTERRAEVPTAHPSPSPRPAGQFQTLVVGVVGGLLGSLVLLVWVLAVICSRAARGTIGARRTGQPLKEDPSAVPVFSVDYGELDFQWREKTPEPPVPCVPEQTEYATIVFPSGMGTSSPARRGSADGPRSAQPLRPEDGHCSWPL
The experiment in a line: Jurkat-PD-1 Cell Binding High-Content Screening Assay (CBA). The class given is cell-based. The conditions noted are these: Jurkat-PD-1 cells, PE-labeled PD-L1-Ig 20 nM final; read-out: Jurkat HPD1_PDL1 IC50. The essentials:
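Cell-bound PE-labeled PD-L1-Ig (20 nM final, 1 h) measured by high-content imaging after fixation and Hoechst 33342 counterstain. Compound was applied first for 2 h at 37° C. to Jurkat cells over-expressing human PD-1 in DMEM with 10% FCS.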
Regarding `CCC(C)[C@@H]1NC(=O)[C@H](Cc2ccc(-c3ccccc3)cc2)NC(=O)[C@H](C(C)C)NC(=O)[C@H](Cc2c[nH]c3ccccc23)NC(=O)[C@H](CC(=O)O)NC(=O)[C@H](Cc2ccc(OCC(=O)O)cc2)NC(=O)[C@H](CN)NC(=O)CSC[C@@H](C(=O)N[C@@H](C)C(N)=O)NC(=O)[C@H](C(C)O)NC(=O)[C@H](C(C)C)NC(=O)[C@H](CC2CCCCC2)NC(=O)[C@H](CCN)NC(=O)[C@@H](CC(C)C)NC(=O)[C@H](CCCN)NC1=O` (stereo partly drawn) [Compound 2520], the 50% inhibitory concentration (IC50) worked out at 10.5 nM.

Take `CCC(C)[C@@H]1NC(=O)[C@H](Cc2ccc(-c3ccccc3)cc2)NC(=O)[C@H](C(C)C)NC(=O)[C@H](Cc2c[nH]c3ccccc23)NC(=O)[C@H](CC(=O)O)NC(=O)[C@H](Cc2ccc(OCC(=O)O)cc2)NC(=O)[C@H](Cc2cccc3ccccc23)NC(=O)CSC[C@@H](C(=O)N[C@@H](C)C(N)=O)NC(=O)[C@H](C(C)O)NC(=O)[C@H](C(C)C)NC(=O)[C@H](CC2CCCCC2)NC(=O)[C@H](CCN)NC(=O)[C@@H](CC(C)C)NC(=O)[C@H](CCCN)NC1=O` (stereo partly drawn) [Compound 2521]: the IC50 is 38.1 nM. `CC(C)C[C@H]1NC(=O)[C@H](CCCN)NC(=O)[C@H](C(C)C)NC(=O)[C@H](Cc2ccc(-c3ccccc3)cc2)NC(=O)[C@H](C(C)C)NC(=O)[C@H](Cc2c[nH]c3ccccc23)NC(=O)[C@H](CC(=O)O)NC(=O)[C@H](Cc2ccc(OCC(=O)O)cc2)NC(=O)[C@H](Cc2ccncc2)NC(=O)CSC[C@@H](C(=O)N[C@@H](C)C(N)=O)NC(=O)[C@H](C(C)O)NC(=O)[C@H](C(C)C)NC(=O)[C@H](CC2CCCCC2)NC(=O)[C@H](CCN)NC1=O` (stereo partly drawn) [Compound 2522]: the half-inhibitory concentration (IC50) is 6.9 nM. Then `CC(C)C[C@H]1NC(=O)[C@H](CCCN)NC(=O)[C@H](C(C)C)NC(=O)[C@H](Cc2ccc(-c3ccccc3)cc2)NC(=O)[C@H](C(C)C)NC(=O)[C@H](Cc2c[nH]c3ccccc23)NC(=O)[C@H](CC(=O)O)NC(=O)[C@H](Cc2ccc(OCC(=O)O)cc2)NC(=O)[C@@H]2CC(N)CN2C(=O)CSC[C@@H](C(=O)N[C@@H](C)C(N)=O)NC(=O)[C@H](C(C)O)NC(=O)[C@H](C(C)C)NC(=O)[C@H](CC2CCCCC2)NC(=O)[C@H](CCN)NC1=O` (stereo partly drawn) [Compound 2523], with 9.6 nM; and `CC(C)C[C@H]1NC(=O)[C@H](CCCN)NC(=O)[C@H](C(C)C)NC(=O)[C@H](Cc2ccc(-c3ccccc3)cc2)NC(=O)[C@H](C(C)C)NC(=O)[C@H](Cc2c[nH]c3ccccc23)NC(=O)[C@H](CC(=O)O)NC(=O)[C@H](Cc2ccc(O)cc2)NC(=O)[C@H](CCCNC(=N)N)NC(=O)CSC[C@@H](C(=O)N[C@@H](C)C(N)=O)NC(=O)[C@H](C(C)O)NC(=O)[C@H](C(C)C)NC(=O)[C@H](CC2CCCCC2)NC(=O)[C@H](CCN)NC1=O` (stereo partly drawn) [Compound 2524] ({CH2CO}-RYDWV[Bip]V[Orn][dL][Dab][Cha]V[Thr(3ξ)]CA-NH2; thioether N-14), with 12.2 nM.

In the case of `CC(C)C[C@H]1NC(=O)[C@H](CCCN)NC(=O)[C@H](C(C)C)NC(=O)[C@H](Cc2ccc(-c3ccccc3)cc2)NC(=O)[C@H](C(C)C)NC(=O)[C@H](Cc2c[nH]c3ccccc23)NC(=O)[C@H](CC(=O)O)NC(=O)[C@H](Cc2ccc(O)cc2)NC(=O)[C@H](CCC(N)=O)NC(=O)CSC[C@@H](C(=O)N[C@@H](C)C(N)=O)NC(=O)[C@H](C(C)O)NC(=O)[C@H](C(C)C)NC(=O)[C@H](CC2CCCCC2)NC(=O)[C@H](CCN)NC1=O` (stereo partly drawn) [Compound 2525] ({CH2CO}-QYDWV[Bip]V[Orn][dL][Dab][Cha]V[Thr(3ξ)]CA-NH2; thioether N-14), the IC50 was 17.3 nM. Then `CC(C)C[C@H]1NC(=O)[C@H](CCCN)NC(=O)[C@H](C(C)C)NC(=O)[C@H](Cc2ccc(-c3ccccc3)cc2)NC(=O)[C@H](C(C)C)NC(=O)[C@H](Cc2c[nH]c3ccccc23)NC(=O)[C@H](CC(=O)O)NC(=O)[C@H](Cc2ccc(O)cc2)NC(=O)[C@H](CC#N)NC(=O)CSC[C@@H](C(=O)N[C@@H](C)C(N)=O)NC(=O)[C@H](C(C)O)NC(=O)[C@H](C(C)C)NC(=O)[C@H](CC2CCCCC2)NC(=O)[C@H](CCN)NC1=O` (stereo partly drawn) [Compound 2526], with 54.8 nM; and `CC(C)C[C@H]1NC(=O)[C@H](CCCN)NC(=O)[C@H](C(C)C)NC(=O)[C@H](Cc2ccc(-c3ccccc3)cc2)NC(=O)[C@H](C(C)C)NC(=O)[C@H](Cc2c[nH]c3ccccc23)NC(=O)[C@H](CC(=O)O)NC(=O)[C@H](Cc2ccc(OCC(=O)O)cc2)NC(=O)[C@H](CCCNC(=N)N)NC(=O)CSC[C@@H](C(=O)N[C@@H](C)C(N)=O)NC(=O)[C@H](C(C)O)NC(=O)[C@H](C(C)C)NC(=O)[C@H](CC2CCCCC2)NC(=O)[C@H](CCN)NC1=O` (stereo partly drawn) [Compound 2530] ({CH2CO}-RY(Carboxymethyl)DWV[Bip]V[Orn][dL][Dab][Cha]V[Thr(3ξ)]CA-NH2; thioether N-14), with 8.5 nM. Then `CCC(C)[C@@H]1NC(=O)[C@H](Cc2ccc(-c3ccccc3)cc2)NC(=O)[C@H](C(C)C)NC(=O)[C@H](Cc2cccc(C)c2)NC(=O)[C@H](CC(=O)O)NC(=O)[C@H](Cc2ccc(OCC(=O)O)cc2)NC(=O)[C@H](CN)NC(=O)CSC[C@@H](C(=O)N[C@@H](C)C(N)=O)NC(=O)[C@H](CO)NC(=O)[C@H](C(C)C)NC(=O)[C@H](CC2CCCCC2)NC(=O)[C@H](CCN)NC(=O)[C@@H](CC(C)C)NC(=O)[C@H](CCCN)NC1=O` (stereo partly drawn) [Compound 2533], with 43.7 nM; and `CCC(C)[C@@H]1NC(=O)[C@H](Cc2ccc(-c3ccccc3)cc2)NC(=O)[C@H](C(C)C)NC(=O)[C@H](Cc2cccc(C)c2)NC(=O)[C@H](CC(=O)O)NC(=O)[C@H](Cc2ccc(OCC(=O)O)cc2)NC(=O)[C@H](Cc2ccc(OCC(=O)O)cc2)NC(=O)CSC[C@@H](C(=O)N[C@@H](C)C(N)=O)NC(=O)[C@H](CO)NC(=O)[C@H](C(C)C)NC(=O)[C@H](CC2CCCCC2)NC(=O)[C@H](CCN)NC(=O)[C@@H](CC(C)C)NC(=O)[C@H](CCCN)NC1=O` (stereo partly drawn) [Compound 2534], with 21.3 nM. Then `CCC(C)[C@@H]1NC(=O)[C@H](Cc2ccc(-c3ccccc3)cc2)NC(=O)[C@H](C(C)C)NC(=O)[C@H](Cc2cccc(C)c2)NC(=O)[C@H](CC(=O)O)NC(=O)[C@H](Cc2ccc(OCC(=O)O)cc2)NC(=O)[C@H](Cc2ccncc2)NC(=O)CSC[C@@H](C(=O)N[C@@H](C)C(N)=O)NC(=O)[C@H](CO)NC(=O)[C@H](C(C)C)NC(=O)[C@H](CC2CCCCC2)NC(=O)[C@H](CCN)NC(=O)[C@@H](CC(C)C)NC(=O)[C@H](CCCN)NC1=O` (stereo partly drawn) [Compound 2535], with 38 nM; and `CC(C)C[C@H]1NC(=O)[C@H](CCCN)NC(=O)[C@H](C(C)C)NC(=O)[C@H](Cc2ccc(-c3ccccc3)cc2)NC(=O)[C@H](C(C)C)NC(=O)[C@H](Cc2c[nH]c3ccccc23)NC(=O)[C@H](CC(=O)O)NC(=O)[C@H](Cc2ccc(O)cc2)NC(=O)[C@H](CC#N)NC(=O)CSC[C@@H](C(=O)N[C@@H](C)C(N)=O)NC(=O)[C@H](C(C)O)NC(=O)[C@H](C(C)C)NC(=O)[C@H](CC2CCCCC2)NC(=O)[C@H](CCN)NC1=O` (stereo partly drawn) [Compound 2536], with 10.9 nM.

As a reminder, the IC50 is the concentration at which inhibition is half-maximal.
